Measurements: PubChem BioAssay AID1259407 (Chemical Carcinogenesis Research Information System (CCRIS), 2018)
The source made the active and inactive calls. How the calls were made is not given here.

System: CCRIS mutagenicity, Ames/micronucleus/aberration tests
Test: CCRIS mutagenicity studies
[1] = Test System: AMES SALMONELLA TYPHIMURIUM, Strain/Indicator: TA100, Metabolic Activation: HAMSTER, LIVER, S-9, AROCLOR 1254 (10%), Method: PREINCUBATION
[2] = Test System: AMES SALMONELLA TYPHIMURIUM, Strain/Indicator: TA100, Metabolic Activation: NONE, Method: PREINCUBATION
[3] = Test System: AMES SALMONELLA TYPHIMURIUM, Strain/Indicator: TA100, Metabolic Activation: RAT, LIVER, S-9, AROCLOR 1254 (10%), Method: PREINCUBATION
[4] = Test System: AMES SALMONELLA TYPHIMURIUM, Strain/Indicator: TA1535, Metabolic Activation: HAMSTER, LIVER, S-9, AROCLOR 1254 (10%), Method: PREINCUBATION
[5] = Test System: AMES SALMONELLA TYPHIMURIUM, Strain/Indicator: TA1535, Metabolic Activation: NONE, Method: PREINCUBATION
[6] = Test System: AMES SALMONELLA TYPHIMURIUM, Strain/Indicator: TA1535, Metabolic Activation: RAT, LIVER, S-9, AROCLOR 1254 (10%), Method: PREINCUBATION
[7] = Test System: AMES SALMONELLA TYPHIMURIUM, Strain/Indicator: TA98, Metabolic Activation: NONE, Method: PREINCUBATION
[8] = Test System: AMES SALMONELLA TYPHIMURIUM, Strain/Indicator: TA98, Metabolic Activation: NONE, Method: STANDARD PLATE

`COCC1CO1` (stereo not given) was tested, and the mutagenic call [1] was “active; positive”, the mutagenic call [2] was “active; positive” and the mutagenic call [3] was “active; positive”. For the same compound, the mutagenic call [4] was “active; positive”, the mutagenic call [5] was “active; positive” and the mutagenic call [6] was “active; positive”.
`Nc1ccc(S(=O)(=O)O)cc1` was tested, and the mutagenic call (Test System: AMES SALMONELLA TYPHIMURIUM, Strain/Indicator: TA97, Metabolic Activation: HAMSTER, LIVER, S-9, AROCLOR 1254 (10 OR 30%), Method: PREINCUBATION) was “inactive; negative”, the mutagenic call (Test System: AMES SALMONELLA TYPHIMURIUM, Strain/Indicator: TA97, Metabolic Activation: NONE, Method: PREINCUBATION) was “inactive; negative” and the mutagenic call (Test System: AMES SALMONELLA TYPHIMURIUM, Strain/Indicator: TA97, Metabolic Activation: RAT, LIVER, S-9, AROCLOR 1254 (10 OR 30%), Method: PREINCUBATION) was “inactive; negative”. The mutagenic call (Test System: AMES SALMONELLA TYPHIMURIUM, Strain/Indicator: TA98, Metabolic Activation: HAMSTER, LIVER, S-9, AROCLOR 1254 (10 OR 30%), Method: PREINCUBATION) was “inactive; negative”, the mutagenic call [7] was “inactive; negative” and the mutagenic call (Test System: AMES SALMONELLA TYPHIMURIUM, Strain/Indicator: TA98, Metabolic Activation: RAT, LIVER, S-9, AROCLOR 1254 (10 OR 30%), Method: PREINCUBATION) was “inactive; negative”. The mutagenic call (Test System: AMES SALMONELLA TYPHIMURIUM, Strain/Indicator: TA98, Metabolic Activation: RAT, LIVER, S-9, PHENOBARBITAL, Method: PREINCUBATION) was “inactive; negative”, the mutagenic call (Test System: AMES SALMONELLA TYPHIMURIUM, Strain/Indicator: TA100, Metabolic Activation: HAMSTER, LIVER, S-9, AROCLOR 1254 (10 OR 30%), Method: PREINCUBATION) was “inactive; negative” and the mutagenic call [2] was “inactive; negative”. The mutagenic call (Test System: AMES SALMONELLA TYPHIMURIUM, Strain/Indicator: TA100, Metabolic Activation: RAT, LIVER, S-9, AROCLOR 1254 (10 OR 30%), Method: PREINCUBATION) was “inactive; negative”, the mutagenic call (Test System: AMES SALMONELLA TYPHIMURIUM, Strain/Indicator: TA100, Metabolic Activation: RAT, LIVER, S-9, PHENOBARBITAL, Method: PREINCUBATION) was “inactive; negative” and the mutagenic call (Test System: AMES SALMONELLA TYPHIMURIUM, Strain/Indicator: TA1535, Metabolic Activation: HAMSTER, LIVER, S-9, AROCLOR 1254 (10 OR 30%), Method: PREINCUBATION) was “inactive; negative”. The mutagenic call [5] was “inactive; negative”, the mutagenic call (Test System: AMES SALMONELLA TYPHIMURIUM, Strain/Indicator: TA1535, Metabolic Activation: RAT, LIVER, S-9, AROCLOR 1254 (10 OR 30%), Method: PREINCUBATION) was “inactive; negative” and the mutagenic call (Test System: Ames Salmonella typhimurium, Strain/Indicator: TA102, Metabolic Activation: None, Method: Preincubation) was “inactive; negative”. The mutagenic call (Test System: Ames Salmonella typhimurium, Strain/Indicator: TA102, Metabolic Activation: Rat, Liver, S9, Aroclor 1254, Method: Preincubation) was “inactive; negative”, the mutagenic call (Test System: Ames Salmonella typhimurium, Strain/Indicator: TA104, Metabolic Activation: None, Method: Preincubation) was “inactive; negative” and the mutagenic call (Test System: Ames Salmonella typhimurium, Strain/Indicator: TA104, Metabolic Activation: Rat, Liver, S9, Aroclor 1254, Method: Preincubation) was “inactive; negative”.
For `NCCCCC(N)C(=O)O` (stereo not given), the mutagenic call (Test System: AMES SALMONELLA TYPHIMURIUM, Strain/Indicator: TA98, Metabolic Activation: RAT LIVER S-9, CHLOROPHENE, Method: STANDARD PLATE (COMPOUND HEATED AT 250 DEGREES CELSIUS FOR 20 MIN)) was “active; positive”.
`O=c1nc(O)n(Cl)c(=O)n1Cl` was tested, and the mutagenic call (Test System: AMES SALMONELLA TYPHIMURIUM, Strain/Indicator: TA98, Metabolic Activation: HAMSTER, LIVER, S-9, AROCLOR 1254 (10%), Method: PREINCUBATION) was “inactive; negative”, the mutagenic call [7] was “inactive; negative” and the mutagenic call (Test System: AMES SALMONELLA TYPHIMURIUM, Strain/Indicator: TA98, Metabolic Activation: RAT, LIVER, S-9, AROCLOR 1254 (10%), Method: PREINCUBATION) was “inactive; negative”. For the same compound, the mutagenic call [1] was “inactive; negative”, the mutagenic call [2] was “inactive; negative” and the mutagenic call [3] was “inactive; negative”. The mutagenic call [4] was “inactive; negative”, the mutagenic call [5] was “inactive; negative” and the mutagenic call [6] was “inactive; negative”. The mutagenic call (Test System: AMES SALMONELLA TYPHIMURIUM, Strain/Indicator: TA1537, Metabolic Activation: HAMSTER, LIVER, S-9, AROCLOR 1254 (10%), Method: PREINCUBATION) was “inactive; negative”, the mutagenic call (Test System: AMES SALMONELLA TYPHIMURIUM, Strain/Indicator: TA1537, Metabolic Activation: NONE, Method: PREINCUBATION) was “inactive; negative” and the mutagenic call (Test System: AMES SALMONELLA TYPHIMURIUM, Strain/Indicator: TA1537, Metabolic Activation: RAT, LIVER, S-9, AROCLOR 1254 (10%), Method: PREINCUBATION) was “inactive; negative”.
With `O[C@H]1[C@H]2O[C@H]2c2c(ccc3c4c5c(cccc5cc23)C=C4)[C@@H]1O` the mutagenic call [8] was “active; positive”, the mutagenic call (Test System: AMES SALMONELLA TYPHIMURIUM, Strain/Indicator: TA98, Metabolic Activation: RAT, LIVER, S-9, AROCLOR 1254 (0.4, 0.8, 1.15 OR 1.5 MG/PLATE), Method: STANDARD PLATE) was “active; positive” and the mutagenic call (Test System: AMES SALMONELLA TYPHIMURIUM, Strain/Indicator: TA98, Metabolic Activation: RAT, LIVER, S-9, AROCLOR 1254, Method: STANDARD PLATE) was “active; positive”.
In the case of `O=Cc1ccc([N+](=O)[O-])cc1[N+](=O)[O-]`, the mutagenic call (Test System: AMES SALMONELLA TYPHIMURIUM, Strain/Indicator: TA98(1,8-DNP6), Metabolic Activation: NONE, Method: SUSPENSION/PLATE) is reported as “active; positive”, the mutagenic call (Test System: AMES SALMONELLA TYPHIMURIUM, Strain/Indicator: TA98(NR), Metabolic Activation: NONE, Method: SUSPENSION/PLATE) is reported as “active; positive” and the mutagenic call [7] is reported as “active; positive”. For the same compound, the mutagenic call (Test System: AMES SALMONELLA TYPHIMURIUM, Strain/Indicator: TA98, Metabolic Activation: NONE, Method: SUSPENSION/PLATE) was “active; positive”, the mutagenic call (Test System: AMES SALMONELLA TYPHIMURIUM, Strain/Indicator: TA98, Metabolic Activation: RAT, LIVER, S-9, PHENOBARBITAL AND 5,6-BENZOFLAVONE, Method: PREINCUBATION) was “active; positive” and the mutagenic call (Test System: AMES SALMONELLA TYPHIMURIUM, Strain/Indicator: TA100(1,8-DNP6), Metabolic Activation: NONE, Method: SUSPENSION/PLATE) was “active; positive”. For the same compound, the mutagenic call (Test System: AMES SALMONELLA TYPHIMURIUM, Strain/Indicator: TA100(NR), Metabolic Activation: NONE, Method: SUSPENSION/PLATE) was “active; positive”, the mutagenic call [2] was “active; positive” and the mutagenic call (Test System: AMES SALMONELLA TYPHIMURIUM, Strain/Indicator: TA100, Metabolic Activation: NONE, Method: SUSPENSION/PLATE) was “active; positive”. For the same compound, the mutagenic call (Test System: AMES SALMONELLA TYPHIMURIUM, Strain/Indicator: TA100, Metabolic Activation: RAT, LIVER, S-9, PHENOBARBITAL AND 5,6-BENZOFLAVONE, Method: PREINCUBATION) was “active; positive”.
With `C[Si](C)(C)N=[N+]=[N-]` the mutagenic call [2] was “active; positive” and the mutagenic call (Test System: AMES SALMONELLA TYPHIMURIUM, Strain/Indicator: TA100, Metabolic Activation: RAT, LIVER, S-9, PCB, Method: PREINCUBATION) was “active; positive”.
With `Cc1c2ccncc2c(C)c2c1[nH]c1ccc(N)cc12` the mutagenic call [8] was “active; positive”, the mutagenic call (Test System: AMES SALMONELLA TYPHIMURIUM, Strain/Indicator: TA98, Metabolic Activation: RAT, LIVER, S-9, PHENOBARBITAL, Method: STANDARD PLATE) was “active; positive” and the mutagenic call (Test System: AMES SALMONELLA TYPHIMURIUM, Strain/Indicator: TA100, Metabolic Activation: NONE, Method: STANDARD PLATE) was “inactive; negative”. For the same compound, the mutagenic call (Test System: AMES SALMONELLA TYPHIMURIUM, Strain/Indicator: TA100, Metabolic Activation: RAT, LIVER, S-9, PHENOBARBITAL, Method: STANDARD PLATE) was “inactive; negative”, the mutagenic call (Test System: AMES SALMONELLA TYPHIMURIUM, Strain/Indicator: TA1537, Metabolic Activation: NONE, Method: STANDARD PLATE) was “active; positive” and the mutagenic call (Test System: AMES SALMONELLA TYPHIMURIUM, Strain/Indicator: TA1537, Metabolic Activation: RAT, LIVER, S-9, PHENOBARBITAL, Method: STANDARD PLATE) was “active; positive”. For the same compound, the mutagenic call (Test System: AMES SALMONELLA TYPHIMURIUM, Strain/Indicator: TA1538, Metabolic Activation: NONE, Method: STANDARD PLATE) was “active; positive” and the mutagenic call (Test System: AMES SALMONELLA TYPHIMURIUM, Strain/Indicator: TA1538, Metabolic Activation: RAT, LIVER, S-9, PHENOBARBITAL, Method: STANDARD PLATE) was “active; positive”.
